Measured values reported in patent EP0333676A2, “Use of 1-(2-ethoxy-2-(3'-pyridyl)ethyl)-4-(2'methoxy-phenyl)piperazine, for the preparation of pharmaceutical compositions useful for the treatment of lower urinary tract disfunctions and benign prostatic hypertrophy” (MALESCI ISTITUTO FARMACOBIOLOGICO S.p.A., priority 1988, dated 1989).

Key:
[1] = tested on: rat acutely treated with hexamethonium; assay: Transvesical cystometrogram in rats acutely treated with hexamethonium (urethral outflow obstruction); format: in vivo; details: pretreatment at doses lower than 3 ug/Kg i.v.
Method: (§1) In the "vivo" studies two experimental models characterized by urethral outflow obstruction were used: a) rat chronically treated with testosterone and b) rat acutely treated with hexamethonium.
Urethane-anaesthetized male albino rats, Wistar strain weighing 300-350 g, were used.
Administration of hexamethonium (40 mg/Kg i.v.) 5 minutes before start of transvescical cystometrogram produced in about 75% of animals an overflow incontinence coupled to high values of intravescical pressure.

[2] = tested on: alpha₁-adrenoceptor; assay: Antagonism of the phenylephrine concentration-response curve in isolated rat proximal urethra; details: versus phenylephrine, compound at 1 nM, rightward parallel displacement of the curve
Method: (§2) In the "in vitro" studies, male albino rats, Wistar Nossan strain, weighing 300-350 g were used. Animals were sacrificed by cervical dislocation and the proximal urethra was quickly excised, cleaned of connective tissues and then suspended in an organ bath and tied to an isometric force transducer, under resting tension of 0.5 g. Experiments were performed at 37°C and the bathing medium (gassed with 95% O₂ and 5% CO₂) had the following composition (mM): NaCl 119, KCl 4.7, MgSO₄ 1.5, […], CaCl₂ 2.5, NaHCO₃ 25 and glucose 11. Experiments were carried out after 60 min equilibration period.
(§3) In a first group of experiments a cumulative concentration response curve to alpha₁-adrenoceptor selective agonist, phenylephrine, was obtained in control conditions or in presence of the compound of invention (1 nM). The compound of invention (1 nM) produced a rightward parallel displacement of concentration response curve to phenylephrine with a pA₂ of 9.18±0.12. In another set of experiments urethral contractions were obtained by means of field stimulation (20 Hz, 0.5 msec, maximal voltage; trains of 5 sec every 4 min). These contractions (obtained in a medium additionated with atropine 1 uM) were TTX-sensitive and probably due to stimulation of adrenergic fibers. […]

[3] = tested on: isolated urethra of rat; assay: Inhibition of field stimulation-induced contractions of isolated rat proximal urethra; details: inhibition of urethral contractions by field stimulation (20 Hz, 0.5 msec, maximal voltage), atropine 1 uM in medium, range 1 pM-1 nM, printed interval (0.09-0.18), read-out: EC₅₀
Method: as §2, §3

[4] = tested on: urethane anaesthetized normotensive rats; assay: Hypotensive effect in urethane-anaesthetized normotensive rats; format: in vivo, rat; details: i.v. administration
Method: (§4) Male albino rats, Wistar strain, weighting 300-350 g, were treated for 2 weeks with testosterone propionate at the dose of 3 mg/Kg s.c.. Afterwards animals were anaesthetized with urethane 40% s.c. (0.3 ml/hg) and then transvescical cystometrogram were perfused according to the method of Maggi et al. (J. Pharmacol. Meth. 15, 157; 1986). Testosterone-treated animals were characterized by the appearance of frequent, scarcely effective, micturition complexes and by a very high residual volume (about double than controls). […] It is important to underline that in urethane anaesthetized normotensive rats, i.v. administration of compound of invention exerts an hypotensive effect in the range 3-100 ug/kg.

[5] = tested on: rat chronically treated with testosterone; assay: Transvesical cystometrogram in rats chronically treated with testosterone (urethral outflow obstruction); format: in vivo; details: 0.1-3 ug/Kg i.v.; rats treated for 2 weeks with testosterone propionate 3 mg/Kg s.c.; urethane anaesthesia
Method: as §1, §4

CCOC(CN1CCN(c2ccccc2OC)CC1)c1cccnc1 (racemic) [compound of invention, 1-(2-ethoxy-2-(3′-pyridyl)ethyl)-4-(2′-methoxy-phenyl)piperazine]
intravescical pressure ([1]; hexamethonium 40 mg/Kg i.v.): lower intravescical pressure values | overflow incontinence ([1]; hexamethonium 40 mg/Kg i.v. (about 75% of animals incontinent without pretreatment)): never produced overflow incontinence | pA₂ [2]: 9.18±0.12 | EC50 [3]: 130 pM | dose range exerting an hypotensive effect [4]: 3 to 100 µg/kg | voiding efficiency [5]: clear, objective and prompt beneficial action on the voiding efficiency
